Laboratory results taken from article PMC8831520, “Small molecule SWELL1 complex induction improves glycemic control and nonalcoholic fatty liver disease in murine Type 2 diabetes” (Nature Communications, 2022).

What was measured:
[1] = system: human umbilical vein endothelial cells (HUVECs); assay: SWELL1, pAKT2 and p-eNOS western blots in HUVECs; assay type: cell-based; settings: 96 h
Procedure: HUVECs were purchased from ATCC (CRL-2922^TM) and were grown in M199 growth media supplemented with 20% FBS, 0.05 g Heparin Sodium Salt (Alfa Aesar), and 15 mg ECGS (Millipore Sigma). Cells were cultured on 1% of gelatin-coated plates at 37 °C and 5% CO2. For SN-40X stimulated eNOS and AKT signaling assays, HUVECs were treated for 96 h with the respective compounds and serum-starved overnight (+DMSO or +SN-40X) for 16 h in M199 media plus 1% FBS (Atlanta Biological). After the serum starve, HUVECs were returned to normal growth media for 30 min (+DMSO or +SN-40X) prior to lysate collection. Small interfering RNA (siRNA) mediated knockdown was adapted from Koh et. al., 2008[81]. Briefly, HUVECs were transfected with either a silencer select siRNA with si-SWELL1 (Cat#4392420, sense: […] antisense: […], Invitrogen) or a non-targeting control silencer select siRNA (Cat# 4390846, Invitrogen) upon reaching 90–95% confluency. siRNA was transfected twice, 24 and 72 h after initial seeding of HUVECs. Each siRNA was combined with Opti-MEM (285.25 µl, Cat#11058-021, Invitrogen) siPORT™ amine (8.75 µl, Cat#AM4503, Invitrogen), and the silencer select siRNA (6 µl) in a final volume of 300 µl. HUVECs were transfected for 4 h at 37 °C in 1% FBS containing DMEM media. For short hairpin RNA (shRNA) mediated knockdown approach, HUVECs were transduced with either human adenovirus type 5 targeting SWELL1 (Ad5-shSWELL1) or scrambled non-targeting control (Ad5-shSCR) at a multiplicity of infection (MOI) of 50 for 24 h at 37 °C upon reaching 70% confluency. The cells were then washed with DMEM media and transduced a second time, with a fresh virus, with an MOI of 25 for 12 h at 37 °C. After the final transduction step, the cells were serum-starved as described above for HUVECs, and lysates were collected. The SN-40X compounds were present in the culture media throughout the transfection/transduction for both the si/sh RNA mediated knockdown approaches. HEK-293 (ATCC, #CRL-1573™) cells were maintained in 90% DMEM (25 mM D-Glucose and 4 mM L-Glutamine) containing 10% fetal bovine serum (FBS) and 100 IU penicillin and 100 µg/ml streptomycin.
Adipocytes were washed twice in ice-cold phosphate buffer saline and lysed in RIPA buffer (150 mM NaCl, 20 mM HEPES, 1% NP-40, 5 mM EDTA, pH 7.4) with proteinase/phosphatase inhibitors (Roche). The cell lysate was further sonicated in 10 s cycle intervals 2–3 times and centrifuged at 18,407×g for 30 min at 4 °C and repeated one more time to remove the excess fat. The supernatant was collected and further estimated for protein concentration using a DC protein assay kit (Bio-Rad). Fat and liver tissues were homogenized and suspended in RIPA buffer with inhibitors and further processed in a similar fashion as described above. HUVECs were also prepared in a similar fashion except the lysates were spun only once to remove the cells debris to obtain the clear supernatant. For islets, either human or mouse islets were washed twice with phosphate buffer saline (PBS) and lysed using RIPA buffer containing protease and phosphatase inhibitors. The lysate was further clarified by freezing in liquid nitrogen for about 10 s for three cycles. The supernatant was collected from the whole lysate centrifuged at 16,260×g for 20 min at 4 °C. […] For soleus muscle, the tissue was homogenized in a Bullet Blender homogenizer (Speed-9, Time-3 mins) in 8 volumes of ice-cold muscle homogenization buffer (50 mM Tris, 25 mM NaCl, 0.2% Nonidet P-40, 5 mM EGTA, 2.5 mM EDTA, 20 mM NaF, 20 mM Na4P2O7·10H2O, 2 mM Na3VO4, pH 7.4) supplemented with protease/phosphatase inhibitor (Roche). The homogenized lysate was centrifuged two times at 18,500×g for 20 min at 4 °C and supernatant was collected for protein estimation. Protein samples were further prepared by boiling in 2X or 4X Laemmli buffer. […]

[2] = system: T1, SWELL1 protein in 3T3-F442A adipocytes; assay: SWELL1 protein under glucolipotoxic stress (palmitate + glucose); assay type: cell-based, murine; settings: 10 µM 96 h pretreatment, then 1 mM palmitate + 25 mM glucose 16 h
T1 construct: host or cells: 3T3-F442A preadipocytes and differentiated adipocytes (wild type)
Procedure: In the case of 3T3-F442A adipocytes, the WT and KO cells were treated with either vehicle (DMSO), 1 or 10 µM SN-40X (after 7–11 days of differentiation) for 96 h and then stimulated with 0 and 10 nM insulin/serum-containing media with vehicle (DMSO) or SN-40X for 15 min for SWELL1 detection. […] To simulate glucolipotoxicity, 8 mM sodium palmitate was dissolved in 18.4% fatty-acid free BSA at 37 °C in DMEM medium with 25 mM glucose to obtain a conjugation ratio of 1:3 palmitate:BSA[80].

[3] = system: pancreatic islets of T2D mice; assay: Insulin secretion of treated T2D mice (serum insulin, islet perifusion GSIS); assay type: in vivo, mouse
Procedure: (§1) Mice were fasted for 6 h prior to glucose tolerance tests (GTT). Baseline glucose levels at 0 min timepoint (fasting glucose, FG) were measured from a blood sample collected from tail snipping using glucometer (Bayer Healthcare LLC). Either 1 or 0.75 g D-Glucose/kg body weight were injected (i.p.) for lean or HFD mice, respectively and glucose levels were measured at 5 or 7, 15, 30, 60, 90, and 120 min timepoints after injection. For insulin tolerance tests (ITTs), the mice were fasted for 4 h. Similar to GTTs, the baseline blood glucose levels were measured at 0 min timepoint and 15, 30, 60, 90, and 120 min timepoints post-injection (i.p.) of insulin (HumulinR, 1 U/kg bodyweight for lean mice or 1.25 U/kg body weight for HFD mice). […] The collected plasma was then measured for insulin content by using Ultra-Sensitive Mouse Insulin ELISA Kit (Crystal Chem, #90080). All mouse studies were performed in a blinded fashion.

[4] = system: T2, SWELL1-LRRC8 channels in the closed state, HEK-293 cells; assay: ICl,SWELL inhibition on preincubation before hypotonic activation (closed channel), patch-clamp; assay type: cell-based; settings: 1 μM applied 30 min prior to hypotonic activation, vs vehicle or Inactive compounds
T2 construct: applied when the endogenous HEK-293 cell ICl,SWELL current density reached 30 pA/pF; endogenous in cells; host or cells: HEK-293 (ATCC, #CRL-1573)

T2D and non-T2D mice = assay: Metabolic phenotyping: fasting glucose, GTT, ITT
Procedure: All compounds were dissolved in Kolliphor® EL (Sigma, #C5135).
as §1

[5] = 12–18 weeks HFD mice, 5 mg/kg/day × 4 days, pre- vs post-treatment

| Structure (SMILES) | effect on SWELL1, pAKT2 and p-eNOS ([1]; 500 nM) | prevention of palmitate/glucose-induced reduction of SWELL1 protein [2] | eNOS phosphorylation (Ser1177) ([1]; 500 nM) | dose dependence of p-eNOS induction ([1]; different concentrations) | impaired GSIS (serum insulin, islet perifusion) ([3]; HFD mice, 21 weeks HFD) | subsequent hypotonic activation of ICl,SWELL [4] | fasting blood glucose (FG), glucose tolerance (GTT), and insulin tolerance (ITT) (T2D and non-T2D mice; HFD-fed and KKAy T2D mice, 5 mg/kg i.p. 4–10 days) | hypoglycemia in control strain (T2D and non-T2D mice; KKAa parental strain, 5 mg/kg × 4–10 days) | FG, GTT, and ITT compared to vehicle (T2D and non-T2D mice; lean, non-T2D, glucose-tolerant mice) | FG, GTT, and ITT compared to vehicle (T2D and non-T2D mice; same mice after 16 weeks of HFD-feeding, 4 days treatment) | SWELL1 induction compared to vehicle ([1]; 100 nM) | basal pAKT2 induction compared to vehicle ([1]; 100 nM) | p-eNOS induction compared to vehicle ([1]; 100 nM) | insulin secretion in perifusion GSIS ([3]; islets of HFD-T2D mice, compared to Inactive 1) | fasting blood glucose (T2D and non-T2D mice; [5]) | glucose tolerance (T2D and non-T2D mice; [5]) | insulin sensitivity based on HOMA-IR (T2D and non-T2D mice; HFD-T2D mice, compared to Inactive 1) | glucose tolerance (T2D and non-T2D mice; HFD-T2D mice, separate experiment, compared to Inactive 1) |
| --- | --- | --- | --- | --- | --- | --- | --- | --- | --- | --- | --- | --- | --- | --- | --- | --- | --- | --- |
| CCCCC1(C2CCCC2)Cc2cc(OCC(=O)O)c(Cl)c(Cl)c2C1=O (centres unmarked) [Inactive 1, 2-((2-butyl-6,7-dichloro-2-cyclopentyl-1-oxo-2,3-dihydro-1H-inden-5-yl)oxy)acetic acid] | no effect | – | – | – | – | – | – | – | – | – | – | – | – | – | – | – | – | – |
| CCCCC1(C2CCCC2)Cc2cc(OCCCC(=O)O)c(Cl)c(Cl)c2C1=O (centres unmarked) [SN-401, 4-((2-butyl-6,7-dichloro-2-cyclopentyl-1-oxo-2,3-dihydro-1H-inden-5-yl)oxy)butanoic acid] | – | entirely prevented | increases | dose-dependent induction of p-eNOS in HUVECs that saturates beyond 100 nM | significantly improved | markedly suppressed and delayed | improved | does not cause hypoglycemia | similar | marked improvements | – | – | – | – | – | – | – | – |
| CCCCC1(C2CCCC2)Cc2cc(OCCCCCC(=O)O)c(Cl)c(Cl)c2C1=O (centres unmarked) [SN-406, 6-((2-butyl-6,7-dichloro-2-cyclopentyl-1-oxo-2,3-dihydro-1H-inden-5-yl)oxy)hexanoic acid] | – | entirely prevented | – | – | – | markedly suppressed and delayed | – | – | – | – | 1.5 fold | 2.8 fold | 5.5 fold | significantly augmented | markedly reduced | improved | trend toward improved insulin sensitivity | significantly improved |
